Reference: patent publication US6391296B1 (priority 1997, dated 2002)

How the values were obtained:
[1] = system: recombinant Bombyx mori nuclear polyhedrosis viruses rBNVγ; assay type: cell-based, Bombyx mori nuclear polyhedrosis virus; settings: pH 3.5
[2] = system: Escherichia coli TI41; assay type: cell-based; settings: Addition of 20 mg/l of thiaisoleucine, 30° C., 48 hours; no addition = 100
[3] = system: Escherichia coli TI139; assay type: cell-based; settings: Addition of 20 mg/l of thiaisoleucine, 30° C., 48 hours; no addition = 100
[4] = system: Escherichia coli JM101; assay type: cell-based; settings: Addition of 20 mg/l of thiaisoleucine, 30° C., 48 hours; no addition = 100

Compound | Amount of infectious viruses [1] | Relative degree of growth [2] [%] | Relative degree of growth [3] [%] | Relative degree of growth [4] [%]
CC(C)(C)CC(C)(C)c1ccc(OCCOCC[N+](C)(C)Cc2ccccc2)cc1 [benzethonium chloride] | Not detected |  |  | 
thiaisoleucine |  | 95.2 | 106.1 | 17.1
